We go through one molecule from patent publication US10278395B2, “Functionalized environmentally benign nanoparticles” (North Carolina State University, priority 2013, dated 2019).

The subject of one assay is E. coli BL21 (DE3). Nature of the assay: Quantitative antimicrobial test on E. coli (wet method, CFU reduction efficiency). The assay is classed as cell-based, Escherichia coli. As to conditions: for CFU reduction efficiency: 40 ppm. On the procedure:
We performed quantitative antimicrobial tests on Gram-negative E. coli BL21 (DE3), a common human pathogen, and qualitative tests on Gram-negative P. aeruginosa, a human pathogen not susceptible to antimicrobial amines such as BPEI and […]. Therefore, any antimicrobial activity in the P. aeruginosa tests will predominantly stem from silver. The activity of each active agent was determined by comparing the number of colony forming units (CFU) of a reference plate with the CFU of a test plate as depicted in FIG. 20. The reduction of CFU on a test plate with antimicrobial agent is time dependent and concentration dependent. […] We quantified by the antimicrobial reduction efficiency “E” with the following equation The schematic in FIG. 21 describes the wet method procedure that was followed for antimicrobial tests on both E. coli and P. aeruginosa. First, 200 μl of each active agent was placed into separate low retention centrifuge tubes. 100 μl of PBS buffer was added to each tube to baseline the ionic strength, and to adjust the pH value to 7. […] The samples were continuously vortexed. After the bacteria were exposed to the active agent for 1 minute, the survival rate of the bacteria was determined by plating 100 μl of each sample evenly distributed on Luria-Bertani agar plates. The procedure was repeated after 30 minutes of exposure time. After the plating procedure, the petri dishes were sealed and incubated upside-down for 48 h at 37° C.

The next assay has as its system Pseudomonas aeruginosa. Nature of the assay: Qualitative antimicrobial test on P. aeruginosa (wet method, growth on plates). The assay is classed as cell-based. The settings on record: for antimicrobial effect (in words): 30 minutes incubation time. The procedure:
We performed quantitative antimicrobial tests on Gram-negative E. coli BL21 (DE3), a common human pathogen, and qualitative tests on Gram-negative P. aeruginosa, a human pathogen not susceptible to antimicrobial amines such as BPEI and […]. Therefore, any antimicrobial activity in the P. aeruginosa tests will predominantly stem from silver. The activity of each active agent was determined by comparing the number of colony forming units (CFU) of a reference plate with the CFU of a test plate as depicted in FIG. 20. The reduction of CFU on a test plate with antimicrobial agent is time dependent and concentration dependent. The schematic in FIG. 21 describes the wet method procedure that was followed for antimicrobial tests on both E. coli and P. aeruginosa. First, 200 μl of each active agent was placed into separate low retention centrifuge tubes. 100 μl of PBS buffer was added to each tube to baseline the ionic strength, and to adjust the pH value to 7. […] The samples were continuously vortexed. After the bacteria were exposed to the active agent for 1 minute, the survival rate of the bacteria was determined by plating 100 μl of each sample evenly distributed on Luria-Bertani agar plates. The procedure was repeated after 30 minutes of exposure time. After the plating procedure, the petri dishes were sealed and incubated upside-down for 48 h at 37° C.

Structures are written as SMILES.

Consider `O=[N+]([O-])[O-].[Ag+]` [AgNO3, silver nitrate], for which, in the assay with E. coli BL21 (DE3), the “Ag concentration at which antimicrobial effects were exhibited” value was determined as 40 ppm Ag. The CFU reduction efficiency in the assay on E. coli BL21 (DE3) (1 min vortex time) came out at 53.33%; in the assay on E. coli BL21 (DE3) (30 min vortex time), 96.19%. Further, the Pseudomonas aeruginosa growth entry in the assay on Pseudomonas aeruginosa (1 min vortex time or contact time, 10 ppm) is given as “Yes”; in the assay with Pseudomonas aeruginosa (1 min vortex time or contact time, 20 ppm), “Yes”; in the assay on Pseudomonas aeruginosa (30 min vortex time or contact time, 10 ppm) it was “Yes”; with Pseudomonas aeruginosa (30 min vortex time or contact time, 20 ppm), “Yes”. The “antimicrobial effect (in words)” value in the assay on Pseudomonas aeruginosa (20 ppm Ag) and in the assay on Pseudomonas aeruginosa (concentration not given) was “no complete antimicrobial effect” each time.
